Test results published in patent US20090203716A1, “Pyrimidine low molecular weight ligands for modulating hormone receptors” (The Government of the United States of America as …, priority 2006, published 2009).

How the values were obtained:
human TSH receptor = target: T1, human TSH receptor (Homo sapiens, UniProt P16473); assay: intracellular cAMP accumulation, agonism at TSHR stably expressed in HEK EM 293 cells; assay type: cell-based; conditions: cAMP
T1 construct: expressed in transfected cells
T1 sequence (P16473 21-764): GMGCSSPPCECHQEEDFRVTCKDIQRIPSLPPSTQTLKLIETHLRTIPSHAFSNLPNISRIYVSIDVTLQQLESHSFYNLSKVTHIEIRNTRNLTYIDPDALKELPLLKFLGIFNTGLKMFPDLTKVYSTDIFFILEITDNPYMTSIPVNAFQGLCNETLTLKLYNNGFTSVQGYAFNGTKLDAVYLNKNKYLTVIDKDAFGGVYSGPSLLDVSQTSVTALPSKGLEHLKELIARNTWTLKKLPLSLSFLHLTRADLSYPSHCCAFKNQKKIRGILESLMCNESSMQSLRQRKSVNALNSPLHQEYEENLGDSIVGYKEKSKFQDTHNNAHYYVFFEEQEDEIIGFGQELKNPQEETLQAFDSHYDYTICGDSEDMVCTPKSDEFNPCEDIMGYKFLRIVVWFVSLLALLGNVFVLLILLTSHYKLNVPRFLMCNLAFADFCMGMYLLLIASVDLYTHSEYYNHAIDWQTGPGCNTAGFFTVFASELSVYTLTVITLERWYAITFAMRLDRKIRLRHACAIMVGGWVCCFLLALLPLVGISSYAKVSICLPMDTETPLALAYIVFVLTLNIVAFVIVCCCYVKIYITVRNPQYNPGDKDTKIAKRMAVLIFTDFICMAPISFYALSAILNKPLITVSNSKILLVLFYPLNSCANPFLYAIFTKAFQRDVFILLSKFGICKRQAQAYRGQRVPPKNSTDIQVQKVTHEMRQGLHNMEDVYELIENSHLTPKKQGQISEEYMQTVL
Protocol: With reference to Table 1, exemplary disclosed compounds were evaluated against human TSH receptor and human LHCG receptor that were stably expressed in HEK 293 EM cells as previously described by Libert et al. (Biochem. Biophys. Res. Commun. 1989, 165, 1250-1255); and by Schulz et al. (Mol. Endocrinol. 1999, 13, 181-190). Cell surface expression of TSH receptor and LHCG receptor were determined via FACS analysis (Kleinau, G.; Jäschke, H.; Neumann, S.; Lättig, S.; Paschke, R.; Krause, G. J. Biol. Chem. 2004, 279, 51590-51600). Agonism of compounds 3-20 were determined via measurement of intracellular cyclic AMP accumulation. […] For example, […] certain compounds disclosed herein exerted no discernible effect on the FSH receptor.
Cells were cultured for 48 h in 24-well plates before incubation for 1 h in serum-free DMEM containing 1 mM 3-isobutyl-1-methylxanthine (IBMX) (SIGMA) and bovine TSH (1.8 μM) (SIGMA) or human LH (1000 ng/ml) (Dr. A. Parlow, NIDDK National Hormone and Pituitary Program) or compounds 3-19 (0-100 μM) in a humidified 5% CO2 incubator. Following aspiration of the medium after incubation with compounds, cells were lysed using lysis buffer 1 of the cAMP Biotrak Enzymeimmunoassay (EIA) System (Amersham Biosciences). The cAMP content of the cell lysate was determined using the manufacturer's protocol. The efficacy of receptor activation by small molecule modulators is expressed as % of maximum response of LHCG receptor or TSH receptor to LH or TSH, respectively. The potency (EC50) was obtained from dose response curves (0-100 μM compound) by data analysis with GraphPad Prism 4 for Windows. With reference to FIG. 1, intracellular cAMP production was determined in response to 100 μM of each compound and is expressed as % of maximum response of TSHR/LHCGR to TSH (100 mU/ml)/LH (1000 ng/ml). The data are presented as mean±SEM of two independent experiments, each performed in duplicate.
(§1) Transiently transfected cells were cultured for 48 hours before the cAMP assay. HEK-EM 293 cells stably expressing TSHR, LHCGR or FSHR were seeded into 24-well plates with a density of 2.2×10^5 cells/well 24 hours before the cAMP assay. After removal of growth medium, cells were incubated for 1 hour in HBSS (Cellgro) with 10 mM HEPES (Cellgro) containing 1 mM 3-isobutyl-1-methylxanthine (IBMX) (Sigma) and the ligand of interest in a humidified 5% CO2 incubator at 37° C. The intracellular cAMP content was determined with the cAMP Biotrak Enzymeimmunoassay (EIA) System (GE Healthcare). Data were analyzed using GraphPad Prism 4 for Windows. Receptor expression was measured as described in Jaschke et al., J Biol Chem 281:9841-9844.

TSHR [1] = target: T2, TSHR (Homo sapiens, UniProt P16473); assay: inhibition of TSH-mediated cAMP response in HEK-EM 293 cells stably expressing TSHR; assay type: cell-based; set-up: expressed in transfected cells
T2 sequence (P16473 21-764): as above
Protocol: as §1
The TSH-mediated cAMP response of TSHR was inhibited by a maximum of 70.8±5.5% at 30 μM compound 52. […] Compound 52 has no activity at FSHR.
To exclude the possibility that compound 52 might be acting independently of TSHR by building aggregates with TSH, thereby inhibiting the TSH-induced response, tests were conducted for a possible aggregation between these two ligands. Compound 52 and TSH were preincubated for up to 15 minutes before addition to HEK-EM 293 cells stably expressing TSHR. […] There was no difference in the antagonistic effect whether TSH and compound 52 were preincubated together or not (data not shown) thereby excluding the possibility that its effect was caused by aggregation with TSH.

TSHR mutant Y7.42A = target: T3, TSHR mutant Y7.42A (Homo sapiens, UniProt P16473, Y667A); assay: cAMP production in HEK-EM 293 cells transiently expressing TSHR mutant Y7.42A; assay type: cell-based; conditions: 30 μM compound
T3 construct: expressed in transfected cells; host or cells: HEK-EM 293 (transient, FuGENE 6)
T3 sequence (P16473 21-764 Y667A): as the sequence (P16473 21-764) above, with Y647A counted along it
Protocol: HEK-EM 293 cells were grown in Dulbecco's modified Eagle's Medium (DMEM) supplemented with 10% fetal bovine serum, 100 units/ml penicillin and 10 μg/ml streptomycin (Life Technologies Inc.) at 37° C. in a humidified 5% CO2 incubator. Cells were transiently transfected with wild type TSHR and mutant receptors in 24-well plates (7.5×10^4 cells per well) with 0.4 μg DNA/well using FuGENE™ 6 reagent (Roche) according to the manufacturer's protocol.
The M9 mutant is described in Jaschke et al., J Biol Chem 281:9841-9844. The Y7.42A mutant was introduced into hTSHR-pcDNA3.1 via the QuickChange XL Site-Directed Mutagenesis kit (Stratagene). The construct was verified by sequencing (MWG Biotech).
as §1, with “After removal of growth medium, cells were incubated for 1 hour in HBSS (Cellgro) with 10 mM HEPES (Cellgro) containing 1 mM 3-isobutyl-1-methylxanthine (IBMX) (Sigma) and the ligand of interest in a humidified 5% CO2 incubator at 37° C.” left out

TSHR [2] = target: T2, TSHR; assay: competition with 125I-labeled TSH for binding to TSHR
human LHCG receptor = target: T4, human LHCG receptor (Homo sapiens, UniProt P22888); assay: intracellular cAMP accumulation, agonism at LHCGR stably expressed in HEK EM 293 cells; assay type: cell-based; conditions: full activation of LHCGR by LH set at 100%
T4 construct: expressed in transfected cells
T4 sequence (P22888 27-699): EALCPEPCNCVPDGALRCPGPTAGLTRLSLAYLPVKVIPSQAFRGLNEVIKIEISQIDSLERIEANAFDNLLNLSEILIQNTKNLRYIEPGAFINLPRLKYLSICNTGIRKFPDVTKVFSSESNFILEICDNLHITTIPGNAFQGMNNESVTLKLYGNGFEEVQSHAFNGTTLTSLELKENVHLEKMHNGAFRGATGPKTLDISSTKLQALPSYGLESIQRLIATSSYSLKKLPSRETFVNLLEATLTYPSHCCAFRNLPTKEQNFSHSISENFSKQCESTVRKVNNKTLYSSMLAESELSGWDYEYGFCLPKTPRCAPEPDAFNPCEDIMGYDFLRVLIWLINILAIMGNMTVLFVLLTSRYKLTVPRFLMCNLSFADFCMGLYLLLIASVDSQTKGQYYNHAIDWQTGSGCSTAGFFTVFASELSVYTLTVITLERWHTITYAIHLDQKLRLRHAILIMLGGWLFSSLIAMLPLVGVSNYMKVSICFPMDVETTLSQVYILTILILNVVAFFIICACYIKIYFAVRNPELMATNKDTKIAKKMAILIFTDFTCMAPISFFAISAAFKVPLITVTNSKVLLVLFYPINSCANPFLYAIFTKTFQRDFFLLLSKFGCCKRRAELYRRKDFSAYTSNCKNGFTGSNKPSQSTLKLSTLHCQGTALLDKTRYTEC
Protocol: With reference to Table 1, exemplary disclosed compounds were evaluated against human TSH receptor and human LHCG receptor that were stably expressed in HEK 293 EM cells as previously described by Libert et al. (Biochem. Biophys. Res. Commun. 1989, 165, 1250-1255); and by Schulz et al. (Mol. Endocrinol. 1999, 13, 181-190). Cell surface expression of TSH receptor and LHCG receptor were determined via FACS analysis (Kleinau, G.; Jäschke, H.; Neumann, S.; Lättig, S.; Paschke, R.; Krause, G. J. Biol. Chem. 2004, 279, 51590-51600).
Following aspiration of the medium after incubation with compounds, cells were lysed using lysis buffer 1 of the cAMP Biotrak Enzymeimmunoassay (EIA) System (Amersham Biosciences). The cAMP content of the cell lysate was determined using the manufacturer's protocol. […] The potency (EC50) was obtained from dose response curves (0-100 μM compound) by data analysis with GraphPad Prism 4 for Windows. […] The data are presented as mean±SEM of two independent experiments, each performed in duplicate.
as §1

agonist activity at TSHR (human TSH receptor): no agonist activity
antagonistic activity at TSHR in cAMP assay (TSHR [1]): antagonist
selectivity toward TSHR compared to LHCGR and FSHR (TSHR [1]): selective toward TSHR
antagonistic effect with or without preincubation with TSH (aggregation test) (TSHR [1]; 30 μM compound, 1.8 nM TSH, preincubated up to 15 minutes): no difference
inhibition at 30 µM (TSHR [1]; HEK-EM293, read-out: maximum inhibition of TSH-mediated cAMP response of TSHR): 70.8 ± 5.5%
IC50 (TSHR [1]; with EC50 dose of TSH): 4.2 µM
cAMP production, fold over TSHR basal activity, Y7.42A (TSHR mutant Y7.42A): 3.2±0.9 fold
competition with 125I-labeled TSH for binding to TSHR (TSHR [2]): does not compete
activity at LHCGR compared to full activation by LH (human LHCG receptor): 17.25±2.25%
Structure (SMILES): COC/C=C/c1ccc(-c2nc(SC)nc3sc(C(=O)NC(C)(C)C)c(N)c23)cc1 [Compound 52]
